Test [1] relates to prion model. The test is described as follows: organism not typed. The format is cell-based.
Test [2] relates to prion model. The format is biochemical.
The test system of test [3] is prion model. The format is cell-based. As to conditions: ethylene oxide 600 mg/L, 18 mins, initial count 8.5.

Molecules are shown by their SMILES. Converted amounts (≈) assume the structure as drawn. Structures can show the parent of a compound that is named as a salt. Where two headings read alike, the source gives them in different places.

Take `CC(=O)OO` [Peracetic acid]: in test [1] (read-out: concentration showing at least some effect on growth of the prion model (MIC test)), the MIC was ~600 µg/mL (≈ 7.89 mM). Besides, in test [2], the “breakdown of the protein” value was “break down the protein to a form which is inactive”. With `[Na+].[OH-]` [NaOH, sodium hydroxide], in test [1], the “activity at inhibiting the growth of the prion model in culture media” value (shortened to “activity at inhibiting the growth”) is “effective” and the “concentration showing at least some effect on growth of the prion model (MIC test)” value (from here on “concentration showing”) is ~0.01 N.

In the case of `Cl` [HCl], the “concentration showing” value in test [1] was ~0.1 N. Take `C1CO1` [ethylene oxide]: the “Prion count in Logs” value worked out at 4.7 Logs in test [3] (54° C., 40% RH) and 5.0 Logs in test [3] (70° C., 100% RH). For `O=[N+]([O-])[O-].[Ag+]` [silver nitrate], in test [1], the “activity at inhibiting the growth” value is recorded as “measurable activity” and the “concentration showing” value is listed as ~30 mg/L. In the case of `[Mn+2]` [Manganese], in test [1], the “activity at inhibiting the growth” value is recorded as “measurable activity” and the “concentration showing” value is ~100 mg/L. Regarding `NC[C@@H]1O[C@H](O[C@H]2[C@@H](O)[C@H](O[C@@H]3[C@@H](O)[C@H](N)C[C@H](N)[C@H]3O[C@H]3O[C@H](CN)[C@@H](O)[C@H](O)[C@H]3N)O[C@@H]2CO)[C@H](N)[C@@H](O)[C@@H]1O.O=S(=O)(O)O` [neomycin sulphate], in test [1], the “activity at inhibiting the growth” value is “measurable activity” and the “concentration showing” value is given as ~125 mg/L.
